Data as given in patent publication US9499493B2, “2,4-pyrimidinediamine compounds and their uses” (Rigel Pharmaceuticals, Inc., priority 2002, dated 2016).
“And” between values parts separate entries of the source, which are not always exact repeats. Identical values can stand only once.

Experiments:
[1] = test system: cultured human mast cells (CHMC); test: CHMC high cell density IgE activation: IL-13; assay type: cell-based; conditions: anti-IgE activation
Procedure: Inhibition of degranulation was measured at both low and high cell density by quantifying the release of the granule specific factors tryptase, histamine and hexosaminidase. Inhibition of release and/or synthesis of lipid mediators was assessed by measuring the release of leukotriene LTC4 and inhibition of release and/or synthesis of cytokines was monitored by quantifying TNF-α, IL-6 and IL-13. Tryptase and hexosaminidase were quantified using fluorogenic substrates as described in their respective examples. […] The protocols of the various assays are provided below.
After sensitizing, cells are counted, pelleted (1000 rpm, 5-10 minutes), and resuspended at 1-2×10^6 cells/ml in MT buffer. Add 100 ul of cell suspension to each well and 100 ul of compound dilutions. The final vehicle concentration is 0.5% DMSO. Incubate at 37° C. (5% CO2) for 1 hour. After 1 hour of compound treatment, stimulate cells with 6× anti-IgE. Mix wells with the cells and allow plates to incubate at 37° C. (5% CO2) for one hour. After 1 hour incubation, pellet cells (10 minutes, 1000 RPM) and collect 200 ul per well of the supernatant, being careful not to disturb pellet. Place the supernatant plate on ice. During the 7-hour step (see next) perform tryptase assay on supernatant that had been diluted 1:500. Resuspend cell pellet in 240 ul of CM media containing 0.5% DMSO and corresponding concentration of compound. Incubate CHMC cells for 7 hours at 37° C. (5% CO2). After incubation, pellet cells (1000 RPM, 10 minutes) and collect 225 ul per well and place in −80° C. until ready to perform ELISAS. ELISAS are performed on appropriately diluted samples (determined empirically for each donor cell population so that the sample measurement falls within the standard curve) following the supplier's instructions.

basophil cells [2] = test: Basophil ionomycin activation: histamine release assay; assay type: cell-based, human; conditions: Basophils
Procedure: (§1) The basophil activation assay was carried out using whole human peripheral blood from donors allergic to dust mites with the majority of the red blood cells removed by dextran sedimentation. Human peripheral blood was mixed 1:1 with 3% dextran T500 and RBCs were allowed to settle for 20-25 min. The upper fraction was diluted with 3 volumes of D-PBS and cells were spun down for 10 min at 1500 rpm, RT. Supernatant was aspirated and cells were washed in an equal volume MT-buffer. Finally, cells were resuspended in MT-buffer containing 0.5% DMSO in the original blood volume. 80 uL cells were mixed with 20 uL compound in the presence of 0.5% DMSO, in triplicate, in a V-bottom 96-well tissue culture plate. A dose range of 8 compound concentrations was tested resulting in a 10-point dose response curve including maximum (stimulated) and minimum (unstimulated) response. […] The cells were stimulated for 30 minutes at 37° C., 5% CO2. The plate was spun for 10 min at 1500 rpm at room temperature and 80 uL the supernatant was harvested for histamine content analysis using the histamine ELISA kit supplied by Immunotech. The ELISA was performed according to supplier's instructions.
Assays for ionomycin-induced basophil cell degranulation were carried out as described for the Basophil IgE or Dustmite Activation Assay (Section 6.4.6, supra), with the exception that following incubation with compound, cells were stimulated with 20 μl of 2 μM ionomycin.

basophil cells [3] = test: Basophil dustmite activation: histamine release assay; assay type: cell-based; conditions: human basophils, house dustmite stimulus; second part of TABLE 1
Procedure: as §1

[4] = test system: bone marrow derived mast cells (BMMC); test: BMMC high cell density IgE activation: LTC4; assay type: cell-based, mouse; conditions: anti-IgE, second part of TABLE 1
Procedure, shortened: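 IgE-sensitized BMMC (1-3×10^6 cells/ml, MT buffer) were pretreated with compound for 1 h at 37 °C in 0.5% DMSO, then stimulated with DNP-BSA (6× stimulus, 60 ng/ml) for 1 h. Supernatant was taken, and cells were re-incubated 4–5 h in WEI-conditioned medium with compound. Mediators were quantified by ELISA.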

[5] = Sheep model of allergic asthma (Ascaris suum challenge); assay type: in vivo; conditions: aqueous suspension; for LAR and AHR (in words) / AHR (% inhibition) / EAR (% inhibition) / LAR (% inhibition): 45 mg/sheep; for LAR and AHR (in words): 60 minutes prior to allergen challenge; for AHR (% inhibition) / EAR (% inhibition) / LAR (% inhibition): pretreatment 60 min
Procedure: Sheep develop bronchoconstriction within minutes of exposure to inhaled antigen (Ascaris suum), with maximal airflow obstruction during the early allergic response (EAR). Release of preformed mast cell mediators is likely responsible for this early phase of airflow obstruction. […] In the sheep, AHR develops a few hours following antigen challenge, and can persist for up to 2 weeks.
In the sheep model of allergic asthma, sheep are administered aerosols of test article via an endotracheal tube, followed by an aerosol challenge with antigen extracted from the roundworm, Ascaris suum, to which the sheep are naturally allergic. Allergen challenge leads to direct bronchoconstriction (both EAR and LAR) and a persistent non-specific AHR. These three characteristics are similar to those seen in human allergic asthmatics. The activity of the test agent is determined by changes in the lung resistance (RL), which is calculated from measurements of transpulmonary pressure, flow, and respiratory volume. […] The LAR is a less pronounced increase in RL, which starts approximately 5-6 hours following allergen challenge and is resolved by 8 hours post-challenge. Twenty-four hours after the challenge, a dose response to carbachol is measured to determine the AHR, which is expressed as the dose of carbachol required to increase RL by 400% over baseline. (This measurement is referred to as the provocative concentration of carbachol that elicits a 400% increase in RL over baseline (PC400). The data are compared to historical control data for the same individual when administered a saline control aerosol and challenged with Ascaris suum.

[6] = test system: cultured human mast cells (CHMC); test: CHMC low cell density ionomycin activation: tryptase assay; assay type: cell-based
[7] = test system: cultured human mast cells (CHMC); test: CHMC high cell density IgE activation: histamine; assay type: cell-based; conditions: anti-IgE activation
Procedure, shortened: (§2)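 IgE-sensitized CHMC at 1-2×10^6 cells/ml were pretreated with compound for 1 h at 37 °C (0.5% DMSO final), then anti-IgE-stimulated for 1 h and supernatant collected. Hexosaminidase was read with a fluorogenic substrate. Pellets were re-incubated 7 h with compound before supernatant ELISAs.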

basophil cells [8] = test: Basophil IgE activation: histamine release assay; assay type: cell-based, human; conditions: Basophils, anti-IgE
Procedure: as §1

[9] = test system: cultured human mast cells (CHMC); test: CHMC high cell density IgE activation: LTC4; assay type: cell-based; conditions: anti-IgE activation
Procedure, shortened: as §2

SMILES | IC50 [1] | IC50 (basophil cells [2]) | IC50 (basophil cells [3]) | IC50 [4] | LAR and AHR (in words) [5] | AHR (% inhibition) [5] | EAR (% inhibition) [5] | LAR (% inhibition) [5] | EAR (in words) [5] | IC50 [6] | IC50 [7] | IC50 (basophil cells [8]) | IC50 [9]
CNC(=O)COc1cccc(Nc2ncc(F)c(Nc3cccc(O)c3)n2)c1 [R926508, 5-Fluoro-N4-(3-hydroxyphenyl)-N2-[3-(N-methylamino)carbonylmethyleneoxyphenyl]-2,4-pyrimidinediamine] | 763 nM | > 10000 nM | 54 nM | 162 nM | blocked | 88% | 21% | 90% | greatly reduced | > 10000 nM | 105 nM | 65 nM | 505 nM
CNC(=O)COc1cccc(Nc2ncc(F)c(Nc3ccc4c(c3)NCCO4)n2)c1 [R921219, N4-(1,4-Benzoxazin-6-yl)-5-fluoro-N2-[3-(N-methylamino)carbonylmethyleneoxyphenyl]-2,4-pyrimidinediamine] | 175 nM | > 10000 nM | 20 nM | 40 nM | blocked | 90% | 54% and 56% | 75% | greatly reduced | > 10000 nM | 162 nM | 25 nM | 34 nM
